Test results reported in PubChem BioAssay AID2060496 (Molecular Pharmacology Branch, DTP, NCI, 2025).

Test system: 276233-004-R-J1-PDC complex spheroid viability
Assay: Anticancer human tumor 276233-004-R-J1-PDC patient-derived colon adenocarcinoma cell line growth inhibition [GQUAD]
Settings: for IC50: curve of first compound; for viability, T/C: stronger effect = lower value
Description: DNA G-quadruplex Stabilizer Agents in Combinations in Complex Spheroids
A high-throughput screen of multi-cell type tumor spheroids was designed to identify active combinations of DNA G-quadruplex stabilizer agents and targeted small molecules. Complex spheroids include a stromal component modeled by human endothelial cells (HUVEC) and fibroblasts modeled by human mesenchymal stem cells (MSCs). The concentration ranges selected for each drug and investigational agent were based upon clinically achievable concentrations if the clinical Cmax of the agent was known.
Compounds. The drugs and investigational agents: pidnarulex (CX-5461; NSC782164), APTO-253 (NSC789042), BRACO-19 (NSC847499), peposertib (NSC802822), ceralasertib (NSC780249), elimusertib (NSC800525), camonsertib (NSC841442), AZD-1390 (NSC803789), olaparib (NSC753686), talazoparib (NSC767125), ART-558 (NSC835418), sotorasib (NSC818433), MRTX-1133 (NSC836407), SN-38 (NSC673596), topotecan (NSC609699), etoposide (NSC141540), doxorubicin (NSC123127), gemcitabine (NSC613327), 5-fluorouracil (NSC19893), paclitaxel (NSC125973), vemurafenib (NSC761431), panobinostat (NSC761190), R-306465 (JNJ-16241199; NSC773264), adavosertib (NSC754352), TP-3654 (NSC805149), carboplatin (NSC241240), KSQ-4279 (NSC840948), and staurosporine (NSC755774) were obtained from the National Cancer Institute (NCI) Developmental Therapeutics Program Chemical Repository (34). The FDA-approved anticancer drug set is available from the NCI Developmental Therapeutics Program. […] The stock solutions were prepared in dimethyl sulfoxide (DMSO, Sigma-Aldrich, St. Louis, MO, cat. D2650) at 800-fold the tested concentration and stored at -70 degrees C prior to their use. All drugs and investigational agents were tested over a range starting from a high concentration at or near the clinical Cmax and decreasing in half-log increments. If the clinical Cmax for an agent had not been determined, the highest concentration tested was 10 microM.
2.3 Cell Culture. All cells were maintained in an incubator at 37 degrees C and 5% CO2 with 95% humidity. The PDC lines were cultured according to standard operating procedures established by the NCI PDMR. All PDCs were thawed and cultured in Matrigel-coated flasks prepared with a working solution of 1X Ham's F-12 nutrient mix, without supplementation (Invitrogen, cat. 11765054), 100 U/mL penicillin-streptomycin (Invitrogen, cat. 15140122), and 2.5% Matrigel (Corning Inc., cat. 354248) for the first three passages. The 857933-349-R-J2-PDC line was cultured in 6C/Colon 1B media, which includes advanced DMEM/F-12 (Thermo Fisher Scientific, cat. 12634028), 10 mM HEPES (Thermo Fisher Scientific, cat. 15630080), 1X GlutaMAX supplement (Thermo Fisher Scientific, cat. 35050061), 0.1 mg/mL primocin (InvivoGen, cat. ant-pm-2), 10% defined fetal bovine serum, heat inactivated (HyClone Laboratories Inc., cat. SH30070.03HI), 50% L-WRN conditioned media (ATCC, cat. CRL-3276), 1.25 mM N-Acetyl-L-cysteine (Sigma-Aldrich, cat. A9165), 10 mM nicotinamide (Sigma-Aldrich, cat. N0636), 1X B-27 supplement (Thermo Fisher Scientific, cat. 17504044), 1X N-2 supplement (Thermo Fisher Scientific, cat. 17502048), 10 microM Y-27632 dihydrochloride (Tocris Bioscience, cat. 1254), and 50 ng/mL human EGF recombinant protein (Thermo Fisher Scientific, cat. PHG0311). The 485176-168-R4-J1-PDC line was cultured in Panc media, which includes all 6C/Colon 1B media components plus 100 ng/mL human FGF-10 (Thermo Fisher Scientific, cat. 100-26), 500 nM SB-431542 (Selleckchem, cat. S1067), and gastrin (Tocris, cat. 3006).
[…]

[1] = second compound 0.0316 µM, first compound 0.0316 µM
[2] = second compound 0.0316 µM, first compound 0.1 µM
[3] = second compound 0.0316 µM, first compound 0.316 µM
[4] = second compound 0.0316 µM, first compound 1 µM
[5] = second compound 0.0316 µM, first compound 3.16 µM
[6] = second compound 0.0316 µM, first compound 10 µM
[7] = second compound 0.1 µM, first compound 0.0316 µM
[8] = second compound 0.1 µM, first compound 0.1 µM
[9] = second compound 0.1 µM, first compound 0.316 µM
[10] = second compound 0.1 µM, first compound 1 µM
[11] = second compound 0.1 µM, first compound 3.16 µM
[12] = second compound 0.1 µM, first compound 10 µM
[13] = second compound 0.316 µM, first compound 0.0316 µM
[14] = second compound 0.316 µM, first compound 0.1 µM
[15] = second compound 0.316 µM, first compound 0.316 µM
[16] = second compound 0.316 µM, first compound 1 µM
[17] = second compound 0.316 µM, first compound 3.16 µM
[18] = second compound 0.316 µM, first compound 10 µM
[19] = second compound 1 µM, first compound 0.0316 µM
[20] = second compound 1 µM, first compound 0.1 µM
[21] = second compound 1 µM, first compound 0.316 µM
[22] = second compound 1 µM, first compound 1 µM
[23] = second compound 1 µM, first compound 3.16 µM
[24] = second compound 1 µM, first compound 10 µM
[25] = second compound 3.16 µM, first compound 0.0316 µM
[26] = second compound 3.16 µM, first compound 0.1 µM
[27] = second compound 3.16 µM, first compound 0.316 µM
[28] = second compound 3.16 µM, first compound 1 µM
[29] = second compound 3.16 µM, first compound 3.16 µM
[30] = second compound 3.16 µM, first compound 10 µM
[31] = second compound 10 µM, first compound 0.0316 µM
[32] = second compound 10 µM, first compound 0.1 µM
[33] = second compound 10 µM, first compound 0.316 µM
[34] = second compound 10 µM, first compound 1 µM
[35] = second compound 10 µM, first compound 3.16 µM
[36] = second compound 10 µM, first compound 10 µM
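Also: spheroids exposed to drugs for seven days.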
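For viability, T/C in this document: 100% = DMSO vehicle control viability.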

C=CC(=O)N1CCN(c2nc(=O)n(-c3c(C)ccnc3C(C)C)c3nc(-c4c(O)cccc4F)c(F)cc23)C(C)C1 (centres undefined) + Cc1cnc(CNC(=O)c2c(=O)c3ccc(N4CCCN(C)CC4)nc3n3c2sc2ccccc23)cn1
IC50 (second compound 0.0316 µM): > 10 µM | IC50 (second compound 0.1 µM): > 10 µM | IC50 (second compound 0.316 µM): > 10 µM | IC50 (second compound 1 µM): > 10 µM | IC50 (second compound 3.16 µM): > 10 µM | IC50 (second compound 10 µM): > 10 µM | viability, T/C [1]: 82.3% | viability, T/C [2]: 75.1% | viability, T/C [3]: 81.3% | viability, T/C [4]: 83.5% | viability, T/C [5]: 103% | viability, T/C [6]: 95.8% | viability, T/C [7]: 93.6% | viability, T/C [8]: 84.6% | viability, T/C [9]: 94.9% | viability, T/C [10]: 92.8% | viability, T/C [11]: 98.4% | viability, T/C [12]: 83.8% | viability, T/C [13]: 80.6% | viability, T/C [14]: 86.3% | viability, T/C [15]: 82.6% | viability, T/C [16]: 83.6% | viability, T/C [17]: 83.3% | viability, T/C [18]: 86.7% | viability, T/C [19]: 76.3% | viability, T/C [20]: 71% | viability, T/C [21]: 88.9% | viability, T/C [22]: 108% | viability, T/C [23]: 79.5% | viability, T/C [24]: 89.5% | viability, T/C [25]: 75.1% | viability, T/C [26]: 74.9% | viability, T/C [27]: 77.1% | viability, T/C [28]: 73.4% | viability, T/C [29]: 77.7% | viability, T/C [30]: 83.5% | viability, T/C [31]: 62.7% | viability, T/C [32]: 68.9% | viability, T/C [33]: 75.6% | viability, T/C [34]: 61.6% | viability, T/C [35]: 80.3% | viability, T/C [36]: 68.8%

CCCS(=O)(=O)Nc1ccc(F)c(C(=O)c2c[nH]c3ncc(-c4ccc(Cl)cc4)cc23)c1F + Cc1cnc(CNC(=O)c2c(=O)c3ccc(N4CCCN(C)CC4)nc3n3c2sc2ccccc23)cn1
IC50 (second compound 0.0316 µM): > 10 µM | IC50 (second compound 0.1 µM): > 10 µM | IC50 (second compound 0.316 µM): > 10 µM | IC50 (second compound 1 µM): > 10 µM | IC50 (second compound 3.16 µM): > 10 µM | IC50 (second compound 10 µM): > 10 µM | viability, T/C [1]: 82.2% | viability, T/C [2]: 93.7% | viability, T/C [3]: 117% | viability, T/C [4]: 105% | viability, T/C [5]: 112% | viability, T/C [6]: 75.7% | viability, T/C [7]: 92% | viability, T/C [8]: 87.3% | viability, T/C [9]: 96.4% | viability, T/C [10]: 105% | viability, T/C [11]: 99.5% | viability, T/C [12]: 82.9% | viability, T/C [13]: 80.8% | viability, T/C [14]: 99.1% | viability, T/C [15]: 101% | viability, T/C [16]: 100% | viability, T/C [17]: 101% | viability, T/C [18]: 79.9% | viability, T/C [19]: 89.3% | viability, T/C [20]: 81.8% | viability, T/C [21]: 97.7% | viability, T/C [22]: 79.2% | viability, T/C [23]: 95% | viability, T/C [24]: 74.3% | viability, T/C [25]: 94.2% | viability, T/C [26]: 76.4% | viability, T/C [27]: 81.9% | viability, T/C [28]: 80.2% | viability, T/C [29]: 71.4% | viability, T/C [30]: 62.2% | viability, T/C [31]: 67.4% | viability, T/C [32]: 70% | viability, T/C [33]: 64.3% | viability, T/C [34]: 69.7% | viability, T/C [35]: 77.1% | viability, T/C [36]: 50.5%
